According to article PMC4955205, “EctD-mediated biotransformation of the chemical chaperone ectoine into hydroxyectoine and its mechanosensitive channel-independent excretion” (Microbial Cell Factories, 2016):

What was measured:
Format in all cases: cell-based
EctD (A. ehrlichii) = target: T1, EctD (A. ehrlichii) (Alkalilimnicola ehrlichii, UniProt A0A3E0X329); assay: whole-cell biotransformation in E. coli FF4169, HPLC; conditions: 10 mM ectoine in medium, MMA with 0.4 M NaCl, 37 °C, 24 h; Fe(II) and 2-oxoglutarate of the cell
T1 construct: gene CAL65_03675; full length, Strep-tag II, codon-optimized gene, plasmid pMP44, expressed in E. coli FF4169
T1 sequence (A0A3E0X329 1-303): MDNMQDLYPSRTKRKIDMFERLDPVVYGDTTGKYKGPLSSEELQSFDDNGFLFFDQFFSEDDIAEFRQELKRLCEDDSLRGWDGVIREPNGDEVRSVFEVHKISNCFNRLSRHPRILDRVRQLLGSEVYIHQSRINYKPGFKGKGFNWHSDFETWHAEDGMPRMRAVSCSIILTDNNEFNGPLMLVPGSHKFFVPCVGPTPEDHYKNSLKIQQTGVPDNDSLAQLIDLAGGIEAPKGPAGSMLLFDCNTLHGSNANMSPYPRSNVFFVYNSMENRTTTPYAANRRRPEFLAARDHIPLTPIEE

ProU ABC transporter = target: T2, ProU ABC transporter (Escherichia coli, UniProt P0AFM2); assay: inhibition of [[…]-14C]glycine betaine uptake, whole cells of ProP- ProU+ strain; conditions: 100 µM [1-14C]glycine betaine, MMA with 0.4 M NaCl, 37 °C, 5 min
T2 construct: gene proX; native chromosomal transporter in whole cells of a proP deletion strain; with Glycine betaine/proline betaine transport system permease protein ProW

[1] = target: T3, EctD (P. stutzeri A1501), ectoine hydroxylase (Stutzerimonas stutzeri, UniProt A4VFY4); assay: whole-cell biotransformation in E. coli FF4169, HPLC; conditions: 10 mM ectoine in medium, MMA with 0.4 M NaCl, 37 °C, 24 h; Fe(II) and 2-oxoglutarate of the cell
T3 construct: homodimer
T3 sequence (A4VFY4 1-302): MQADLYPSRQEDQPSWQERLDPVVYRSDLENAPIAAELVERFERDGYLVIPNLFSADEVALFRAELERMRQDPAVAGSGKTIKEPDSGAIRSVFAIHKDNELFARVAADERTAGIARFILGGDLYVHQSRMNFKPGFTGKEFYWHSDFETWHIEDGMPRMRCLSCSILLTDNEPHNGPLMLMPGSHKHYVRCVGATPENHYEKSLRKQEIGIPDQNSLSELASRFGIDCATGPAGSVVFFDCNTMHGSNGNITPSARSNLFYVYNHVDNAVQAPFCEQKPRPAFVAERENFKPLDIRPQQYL

EctD (S. alaskensis) = target: T4, EctD (S. alaskensis) (Sphingopyxis alaskensis, UniProt Q1GNW5); assay: as above; conditions: 10 mM ectoine in medium, MMA with 0.4 M NaCl, 37 °C, 24 h; Fe(II) and 2-oxoglutarate of the cell
T4 construct: full length, Strep-tag II, plasmid pMP40, expressed in E. coli FF4169; homodimer
T4 sequence (Q1GNW5 1-306): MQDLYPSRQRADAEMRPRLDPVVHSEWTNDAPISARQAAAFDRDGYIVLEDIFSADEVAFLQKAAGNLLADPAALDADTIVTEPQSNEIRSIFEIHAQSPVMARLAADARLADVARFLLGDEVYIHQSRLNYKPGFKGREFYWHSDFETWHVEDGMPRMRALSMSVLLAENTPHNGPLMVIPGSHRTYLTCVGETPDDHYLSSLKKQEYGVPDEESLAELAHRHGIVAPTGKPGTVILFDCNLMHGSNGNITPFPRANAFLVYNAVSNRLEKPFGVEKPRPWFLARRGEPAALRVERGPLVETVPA

EctD (N. maritimus) = target: T5, EctD (N. maritimus) (Nitrosopumilus maritimus, UniProt A9A2K0); assay: as above; conditions: 10 mM ectoine in medium, MMA with 0.4 M NaCl, 37 °C, 24 h; Fe(II) and 2-oxoglutarate of the cell
T5 construct: gene Nmar_1343; full length, Strep-tag II, codon-optimized gene, plasmid pMP45, expressed in E. coli FF4169
T5 sequence (A9A2K0 1-304): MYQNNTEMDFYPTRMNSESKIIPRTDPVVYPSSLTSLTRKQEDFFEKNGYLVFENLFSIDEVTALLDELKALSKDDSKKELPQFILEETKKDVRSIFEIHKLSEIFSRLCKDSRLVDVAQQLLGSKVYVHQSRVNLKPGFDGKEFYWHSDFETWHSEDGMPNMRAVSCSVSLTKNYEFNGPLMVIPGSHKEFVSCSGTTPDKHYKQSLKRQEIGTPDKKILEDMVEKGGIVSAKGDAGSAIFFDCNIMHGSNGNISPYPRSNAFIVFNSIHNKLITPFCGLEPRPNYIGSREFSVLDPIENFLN

EctD (H. elongata) = target: T6, EctD (H. elongata) (Halomonas elongata, UniProt E1VA04); assay: as above; conditions: 10 mM ectoine in medium, MMA with 0.4 M NaCl, 37 °C, 24 h; Fe(II) and 2-oxoglutarate of the cell
T6 construct: full length, Strep-tag II, plasmid pMP32, expressed in E. coli FF4169
T6 sequence (E1VA04 1-332): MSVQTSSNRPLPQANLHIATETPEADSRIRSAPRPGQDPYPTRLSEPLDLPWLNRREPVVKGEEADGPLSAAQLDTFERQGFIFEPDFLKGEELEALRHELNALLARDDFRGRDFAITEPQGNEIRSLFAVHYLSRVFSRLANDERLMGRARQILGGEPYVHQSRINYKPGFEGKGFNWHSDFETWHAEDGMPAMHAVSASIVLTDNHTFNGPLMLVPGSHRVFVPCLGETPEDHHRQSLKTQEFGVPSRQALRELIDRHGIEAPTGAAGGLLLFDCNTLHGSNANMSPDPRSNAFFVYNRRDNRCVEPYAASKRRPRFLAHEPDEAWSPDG

EctD (P. lautus) = target: T7, EctD (P. lautus) (Paenibacillus lautus, UniProt A0A385TC02); assay: as above; conditions: 10 mM ectoine in medium, MMA with 0.4 M NaCl, 37 °C, 24 h; Fe(II) and 2-oxoglutarate of the cell
T7 construct: gene thpD; full length, Strep-tag II, codon-optimized gene, plasmid pMP43, expressed in E. coli FF4169
T7 sequence (A0A385TC02 1-302): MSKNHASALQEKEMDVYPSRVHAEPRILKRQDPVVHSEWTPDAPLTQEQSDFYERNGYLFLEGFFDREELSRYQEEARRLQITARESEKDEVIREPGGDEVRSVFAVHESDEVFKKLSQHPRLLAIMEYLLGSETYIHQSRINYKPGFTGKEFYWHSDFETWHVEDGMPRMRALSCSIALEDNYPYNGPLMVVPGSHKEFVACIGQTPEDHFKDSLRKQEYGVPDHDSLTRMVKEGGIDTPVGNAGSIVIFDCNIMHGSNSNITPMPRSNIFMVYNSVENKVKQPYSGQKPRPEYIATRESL

ProP = target: T8, ProP (Escherichia coli, UniProt P0C0L7); assay: inhibition of [[…]-14C]glycine betaine uptake, whole cells of ProP+ ProU- strain; conditions: 100 µM [1-14C]glycine betaine, MMA with 0.4 M NaCl, 37 °C, 5 min; unlabelled glycine betaine 1 mM; labelled compound
T8 construct: native chromosomal transporter in whole cells of a proU deletion strain
T8 sequence (P0C0L7 whole entry): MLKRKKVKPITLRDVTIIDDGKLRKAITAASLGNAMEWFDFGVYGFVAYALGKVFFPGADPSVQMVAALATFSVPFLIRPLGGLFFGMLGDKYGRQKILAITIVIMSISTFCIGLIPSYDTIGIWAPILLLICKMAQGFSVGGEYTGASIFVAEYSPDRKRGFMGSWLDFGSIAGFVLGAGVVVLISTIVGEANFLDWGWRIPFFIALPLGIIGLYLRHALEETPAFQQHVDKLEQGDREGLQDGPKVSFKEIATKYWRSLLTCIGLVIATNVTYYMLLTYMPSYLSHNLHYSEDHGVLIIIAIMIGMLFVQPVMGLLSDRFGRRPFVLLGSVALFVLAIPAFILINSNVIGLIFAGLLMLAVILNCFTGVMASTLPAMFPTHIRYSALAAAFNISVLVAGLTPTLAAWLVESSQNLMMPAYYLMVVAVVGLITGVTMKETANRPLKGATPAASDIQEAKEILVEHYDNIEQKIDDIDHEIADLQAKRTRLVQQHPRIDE

T2 sequence (P14176 whole entry): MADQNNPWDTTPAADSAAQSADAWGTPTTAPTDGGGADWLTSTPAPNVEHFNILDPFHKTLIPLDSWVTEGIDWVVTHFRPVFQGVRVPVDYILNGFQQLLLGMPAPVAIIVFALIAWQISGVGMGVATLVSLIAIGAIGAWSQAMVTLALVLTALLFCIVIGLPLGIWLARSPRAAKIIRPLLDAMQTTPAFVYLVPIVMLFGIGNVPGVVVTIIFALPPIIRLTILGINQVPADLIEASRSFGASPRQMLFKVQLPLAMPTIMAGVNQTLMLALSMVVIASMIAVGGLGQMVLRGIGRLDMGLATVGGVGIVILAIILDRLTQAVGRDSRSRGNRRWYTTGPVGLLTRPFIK
T2 sequence (P0AFM2 22-330): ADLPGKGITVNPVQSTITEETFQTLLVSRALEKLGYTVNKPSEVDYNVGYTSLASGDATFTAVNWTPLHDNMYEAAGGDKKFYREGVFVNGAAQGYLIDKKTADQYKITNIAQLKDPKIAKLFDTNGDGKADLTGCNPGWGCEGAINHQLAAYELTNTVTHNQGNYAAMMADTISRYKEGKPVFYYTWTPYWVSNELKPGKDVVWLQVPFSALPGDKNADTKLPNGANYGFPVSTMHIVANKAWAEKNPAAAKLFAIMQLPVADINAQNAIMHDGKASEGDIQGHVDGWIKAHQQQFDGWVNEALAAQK
T2 sequence (P14175 whole entry, further chain): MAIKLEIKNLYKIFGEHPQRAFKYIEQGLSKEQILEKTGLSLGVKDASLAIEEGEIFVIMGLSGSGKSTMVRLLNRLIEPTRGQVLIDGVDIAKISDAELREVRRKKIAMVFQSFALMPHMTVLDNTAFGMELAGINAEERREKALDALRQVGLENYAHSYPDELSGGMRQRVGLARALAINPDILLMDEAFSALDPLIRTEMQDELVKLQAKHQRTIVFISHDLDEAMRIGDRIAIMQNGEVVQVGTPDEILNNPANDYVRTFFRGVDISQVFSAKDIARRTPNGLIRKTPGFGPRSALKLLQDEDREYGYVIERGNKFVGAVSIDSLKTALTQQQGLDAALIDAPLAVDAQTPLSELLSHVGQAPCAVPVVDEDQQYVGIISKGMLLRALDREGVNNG

| % inhibition at 1000-fold excess (ProU ABC transporter; competitor 1000-fold excess (100 mM)) | % inhibition at tenfold excess (ProU ABC transporter; unlabelled glycine betaine 1 mM, labelled compound) | % inhibition at tenfold excess (ProP) | SMILES | whole-cell biotransformation in E. coli FF4169, HPLC (EctD (A. ehrlichii)) | whole-cell biotransformation in E. coli FF4169, HPLC [1] | whole-cell biotransformation in E. coli FF4169, HPLC (EctD (S. alaskensis)) | whole-cell biotransformation in E. coli FF4169, HPLC (EctD (N. maritimus)) | whole-cell biotransformation in E. coli FF4169, HPLC (EctD (H. elongata)) | whole-cell biotransformation in E. coli FF4169, HPLC (EctD (P. lautus)) |
| --- | --- | --- | --- | --- | --- | --- | --- | --- | --- |
| 45% |  |  | CC1=NCC[C@@H](C(=O)O)N1 [ectoine, (S)-2-methyl-1,4,5,6-tetrahydropyrimidine-4-carboxylic acid] | a mixture of the added ectoine and the newly produced 5-hydroxyectoine were observed | almost all of the provided ectoine had been converted into 5-hydroxyectoine | a mixture of the added ectoine and the newly produced 5-hydroxyectoine were observed | almost all of the provided ectoine had been converted into 5-hydroxyectoine | a mixture of the added ectoine and the newly produced 5-hydroxyectoine were observed | a mixture of the added ectoine and the newly produced 5-hydroxyectoine were observed |
|  | ~ 85% | ~ 85% | C[N+](C)(C)CC(=O)[O-] [glycine betaine] |  |  |  |  |  |  |
